Drawing on ChEMBL document CHEMBL3046060, “Synthesis, molecular docking study, and anticancer activity of triaryl-1,2,4-oxadiazole” (Med Chem Res, 2013), this text covers IC50 and Activity for six compounds.

Experiment [1] relates to K562. Nature of the experiment: Cytotoxicity against Homo sapiens (human) K562 cells assessed as inhibition of cell proliferation after 24 hr by MTT assay. It counts as functional, cell-based. The following applies: K562, 24 h. On the technique in general: Tetrazolium assays rely on reduction of a dye to a coloured formazan, in cell work by metabolically active cells.
Experiment [2] deals with K562. Nature of the experiment: Cytotoxicity against Homo sapiens (human) K562 cells at 50 uM after 24 hr by MTT assay. It counts as functional.
In experiment [3] the test system is MCF7. Nature of the experiment: Cytotoxicity against Homo sapiens (human) MCF7 cells at 50 uM after 24 hr by MTT assay. It counts as functional.
In experiment [4] the test system is MCF7. Nature of the experiment: cells. The note with it: Homo sapiens, MCF7, 24 h.
Description: Cytotoxicity against Homo sapiens (human) MCF7 cells assessed as inhibition of cell proliferation after 24 hr by MTT assay

pIC50: −log10 of the molar value. Some results are limits rather than exact numbers.

In general, pIC50 refers to the IC50 on a negative log10 scale, so that one unit is a factor of ten. Regarding `Fc1ccc(C2ON=C(c3ccc(Cl)cc3)N2c2ccccc2)cc1` (centres undefined), the values for the pIC50 in experiment [1] and in experiment [4] were 4.66 and 5.19, respectively. The Activity in experiment [2] and in experiment [3] was greater than 50% in each case.
In the case of `CC(=O)O[C@H]1C(=O)[C@@]2(C)[C@H]([C@H](OC(=O)c3ccccc3)[C@]3(O)C[C@H](OC(=O)[C@H](O)[C@@H](NC(=O)c4ccccc4)c4ccccc4)C(C)=C1C3(C)C)[C@]1(OC(C)=O)CO[C@@H]1C[C@@H]2O` [PACLITAXEL], the pIC50 in experiment [1] is less than 4.00.
As for `Clc1ccc(C2=NOC(c3ccc(Cl)cc3)N2c2ccccc2)cc1` (centres undefined), the values for the negative-log IC50 (pIC50) in experiment [1] and in experiment [4] were 4.65 and 5.00, respectively. Moreover, the Activity in experiment [2] and in experiment [3] was greater than 50% throughout.
On to `COc1cccc2c1C(=O)c1c(O)c3c(c(O)c1C2=O)C[C@@](O)(C(=O)CO)C[C@@H]3O[C@H]1C[C@H](N)[C@H](O)[C@H](C)O1` [DOXORUBICIN], for which the pIC50 is 5.35 in experiment [1] and less than 4.00 in experiment [4].
For the compound `Clc1ccc(C2=NOC(c3ccc(Cl)cc3)N2c2ccc(Cl)cc2)cc1` (centres undefined), the results for the negative logarithm of the IC50 (pIC50) in experiment [1] and in experiment [4] were 4.29 and 4.65, respectively. The Activity in experiment [2] and in experiment [3] was greater than 50% in each case.
For `Clc1ccc(C2=NOC(c3ccccc3)N2c2ccccc2)cc1` (centres undefined), the pIC50 is 4.01 in experiment [1] and 4.63 in experiment [4]. In addition, the Activity in experiment [2] and in experiment [3] was greater than 50% throughout.
